Assay results from patent US20250032575A1, “USE OF A MURAMYL PEPTIDE IN THE TREATMENT OF SKELETAL GROWTH RETARDATION” (UNIVERSITE CLAUDE BERNARD LYON 1, priority 2021, published 2025).

Legend:
Assay type in all cases: in vivo, mice
[1] = system: chronically undernourished mouse model; assay: body length (nose-anus) growth in chronically undernourished mouse model; settings: for growth rate / relative growth (% length gain, day 21 = 100%) / total height: male mice on low-protein, low-fat diet, day 21 to 56, oral, 5 times a week, vs placebo; for skeletal growth (linear or longitudinal): summary of examples 1 and 2, oral administration, juvenile mice on protein-deficient diet mimicking chronic undernutrition
Experimental: (§1) Conventional C57B1/6j laboratory mice have been bred in the Gnotobiology Laboratory for more than 10 generations. Mice have been maintained in IVC cages (Tecniplast, Italy), exposed to 12:12 h light-dark cycles, supplied with tap water and fed ad libitum with sterile diet V1124-300 (Ssniff Spezialdiaten GmbH) (irradiated −25 kGy, Bioster, Czech Republic). The mice have been mated and after delivery, the litter size was reduced to 6 pups per mother. On day 21, male mice have been weaned on the experimental low-protein, low-fat diet (3.5 kcal/gram, protein: 4.1 wt %, carbohydrate: 78 wt %, fat: 2 wt %) and regularly monitored until 56 days after birth (adult age in mice). Mice weaned on the low-protein, low-fat diet have been treated 5 times a week with placebo, composition A containing MDP or composition B containing Murabutide. At the end of the experiment, food and bedding were removed at 8 am and the mice have been sacrificed after 5 hours of fasting by isoflurane inhalation and cervical dislocation. All animals have been sacrificed within one hour between 1 and 2 p.m.
(§2) The daily treatment dose was 30 μL placebo or for MDP 25 μg in 30 μL placebo and for murabutide 28 μg in 30 μL placebo. Each of the compositions has been administered by pipette to the mouse's tongue. The mouse has been maintained until the composition had been swallowed completely.
(§3) To measure body length, the mice have briefly been anaesthetised with isoflurane (Piramal Healthcare, UK). The anaesthetised mouse has been held by the tail and the nose-anus length has been measured using a ruler. Relative length has been calculated as % length gain, where body length at day 21 (weaning) has been set to 100%. The length growth rate has been calculated by dividing the absolute length gain from day 21 to day 56 by the number of days (i.e. 35). Femur and tibia bones have been dissected at sacrifice, fixed in 4% paraformaldehyde—PBS overnight at 4° C., washed with PBS and preserved in 70% ethanol. Bone length has been measured using a digital caliper (Festa).
Conventional C57B1/6j laboratory mice have been bred in the Gnotobiology Laboratory for more than 10 generations. Mice have been maintained in IVC cages (Tecniplast, Italy), exposed to 12:12 h light-dark cycles, supplied with tap water and fed ad libitum with sterile diet V1124-300 (Ssniff Spezialdiäten GmbH) (irradiated −25 kGy, Bioster, Czech Republic). The mice have been mated and after delivery the litter size was reduced to 6 pups per mother. On day 21, male mice have been weaned on the experimental low-protein, low-fat diet (3.5 kcal/gram, protein: 4.1 wt %, carbohydrate: 78 wt %, fat: 2 wt %) and monitored regularly for up to 56 days after birth. Mice weaned on the low-protein, low-fat diet have been treated 5 times a week with either the placebo composition or the composition comprising mifamurtide as prepared in point 1.1 above. At the end of the experiment, the food and bedding were removed at 8 a.m. and the mice have been sacrificed after 5 hours of fasting by isoflurane inhalation and cervical dislocation. All animals have been sacrificed within one hour between 1 and 2 p.m.
Each of the compositions has been administered by pipette to the tongue of the mouse. The mouse has been held until the composition had been swallowed completely.
The tests were carried out on male mice with each of the above compositions P, A, AB and B, according to the protocol indicated in example 1, point 1.1 above (56-day period).
The daily treatment dose was 30 μL of composition P (Placebo) or 25 μg MDP alone in 30 μL of placebo (composition A), or 25 μg MDP and 2.10^8 CFU of Lactiplantibacillus plantarum strain WJL bacteria in 30 μL of placebo (composition AB) or 2.10^8 CFU of Lactiplantibacillus plantarum strain WJL bacteria in 30 μL of placebo (composition B). […]

[2] = system: chronically undernourished mouse model; assay: femur and tibia bone length in chronically undernourished mouse model; settings: at sacrifice day 56, oral, vs placebo
Experimental: as §1, §2, §3
Conventional C57B1/6j laboratory mice have been bred in the Gnotobiology Laboratory for more than 10 generations. Mice have been maintained in IVC cages (Tecniplast, Italy), exposed to 12:12 h light-dark cycles, supplied with tap water and fed ad libitum with sterile diet V1124-300 (Ssniff Spezialdiäten GmbH) (irradiated −25 kGy, Bioster, Czech Republic). The mice have been mated and after delivery the litter size was reduced to 6 pups per mother. On day 21, male mice have been weaned on the experimental low-protein, low-fat diet (3.5 kcal/gram, protein: 4.1 wt %, carbohydrate: 78 wt %, fat: 2 wt %) and monitored regularly for up to 56 days after birth. […]

IGF-1 = assay: circulating IGF-1 level in serum, Mouse/Rat IGF-1 Quantikine ELISA; settings: serum at day 56, oral, vs placebo
Experimental: Conventional C57B1/6j laboratory mice have been bred in the Gnotobiology Laboratory for more than 10 generations. Mice have been maintained in IVC cages (Tecniplast, Italy), exposed to 12:12 h light-dark cycles, supplied with tap water and fed ad libitum with sterile diet V1124-300 (Ssniff Spezialdiaten GmbH) (irradiated −25 kGy, Bioster, Czech Republic). The mice have been mated and after delivery, the litter size was reduced to 6 pups per mother. On day 21, male mice have been weaned on the experimental low-protein, low-fat diet (3.5 kcal/gram, protein: 4.1 wt %, carbohydrate: 78 wt %, fat: 2 wt %) and regularly monitored until 56 days after birth (adult age in mice). […]
At the end of the experiment, the blood has been collected and left to coagulate at room temperature for 2 hours. […] IGF-1 levels have been measured using the Mouse/Rat IGF-1 Quantikine ELISA kit (R&D systems) according to the manufacturer's instructions. Data have been analysed using the following statistical test: One way ANOVA with Tukey's multiple comparisons test.
Conventional C57B1/6j laboratory mice have been bred in the Gnotobiology Laboratory for more than 10 generations. […] On day 21, male mice have been weaned on the experimental low-protein, low-fat diet (3.5 kcal/gram, protein: 4.1 wt %, carbohydrate: 78 wt %, fat: 2 wt %) and monitored regularly for up to 56 days after birth. […]

[3] = Example 1, MDP 25 μg or murabutide 28 μg in 30 μL
[4] = Example 1, 5 times a week, MDP 25 μg or murabutide 28 μg in 30 μL
[5] = Example 2, Mifamurtide 62.5 μg/day in 30 μL

Compound	growth rate [1, 3]	relative growth (% length gain, day 21 = 100%) [1, 3]	total height [1, 3]	skeletal growth (linear or longitudinal) [1]	femur size [2, 4]	length of the tibia [2, 4]	circulating IGF1 level (IGF-1; [4])	growth rate [1, 5]	relative growth (% length gain, day 21 = 100%) [1, 5]	total height [1, 5]	size of the femur [2, 5]	size of the tibia [2, 5]	circulating IGF1 level (IGF-1; [5])
CCCCOC(=O)[C@@H](CCC(N)=O)NC(=O)[C@H](C)NC(=O)[C@@H](C)O[C@H]1[C@H](O)[C@@H](CO)OC(O)[C@@H]1NC(C)=O (some centres unmarked) [murabutide, muramyl dipeptide butyl ester]	significantly increased	significantly increased	significantly increased	positive effect	positive trend in murabutide treatment that did not reach statistical significance	positive trend of increased growth	significantly increased						
muramyl tripeptide phosphatidyl ethanolamine [Mifamurtide]				positive effect				significantly increased	significantly increased	significantly increased	significantly increased	significantly increased	significantly increased
